Results published in US10905897B2, “Synergistic treatment methodologies using light therapy” (Neuro-Laser Foundation, Inc., priority 2016, dated 2021).

How the values were obtained:
postconcussive symptoms = settings: patients with TBI; cited from earlier work
traumatic brain injury = settings: two large U.S. studies; cited from earlier work
post-concussive syndrome = settings: double-blind, placebo-controlled; cited from earlier work
[1] = test system: nerves involved in polyneuropathy; assay: Polyneuropathy treatment: ketamine administration followed by infrared light, nerve conduction; format: in vivo, human; settings: then 810 nm and 980 nm light, 10.5 watts, continuous wave, 10 minutes, about 9-10 treatments
Excerpt: In one embodiment, the inventive method can be employed to treat an exemplary case of polyneuropathy. In this example, a neurologist or other medical professional can conduct an EMG study (or other diagnostic procedure) to determine which nerve is involved, locate the distal portion of the nerve and the path through the body. Then, after the appropriate ketamine administration, as part of 910, the operator configures the system. For example, this can be accomplished by setting the wattage to 10.5 watts, setting the wavelengths to 810 nm and 980 nm, specifying continuous wave, setting duration at 10 minutes, and determining total joules to be about 6000. The operator would then activate the applicator over the nerve to be treated. Maintaining proximity and applying active circular techniques, the operator would move the applicator over the area of involvement, tracing the actual nerve or nerves involved. This might entail, for instance, moving from the hip down the leg to the foot, or from the hand up the arm to the shoulder. The active sweeping pattern is maintained throughout, while monitoring the temperature, light, duration and patient as well. The treatment is then reviewed with the patient and follow-up treatments are scheduled (usually approximately 9-10 treatments for this condition). […]

[2] = test system: depressive symptoms and suicidal ideation; settings: single infusion; cited from earlier work
depression = assay: Clinical experience with ketamine treatment for depression; settings: extensive clinical experience
tau protein = settings: transgenic mice overexpressing tau, cited from earlier work

C[S+](CC[C@H](N)C(=O)O)C[C@H]1O[C@@H](n2cnc3c(N)ncnc32)[C@H](O)[C@@H]1O (some centres unmarked) [SAMe, S-adenosylmethionine]
improvement in clinical scores of postconcussive symptoms (postconcussive symptoms): 77%

C[N+](C)(C)CCOP(=O)(O)OP(=O)([O-])OC[C@H]1O[C@@H](n2ccc(N)nc2=O)[C@H](O)[C@@H]1O [Citicholine]
benefit in TBI (traumatic brain injury): failed to demonstrate significant benefit

NC(=O)CN1CCCC1=O [piracetam, Piracetam]
symptoms of post-concussive syndrome, including headache and vertigo (post-concussive syndrome): improved several symptoms

CNC1(c2ccccc2Cl)CCCCC1=O (centres unmarked) [ketamine]
increase in the conduction velocity of the nerves involved [1]: 20-30% | duration of symptom relief with single infusions [2]: 4 to 10 days | patients treated for depression who see a favorable clinical response (depression): approximately 80%

[Cl-].[Li+] [lithium chloride]
resulting blood levels (tau protein; dietary lithium chloride): ≤ 0.2 milli-Equivalents per liter | levels of tau protein accumulation upon pathological examination (tau protein): significantly decreased
